Format in all cases: functional
For assay [1], the species on record is Mus musculus. The assay is described as follows: Body weight of the high cholesterol-fed mice after 10 day.
Assay [2] is filed under the species Mus musculus. The assay is described as follows: Effect on plasma total cholesterol in high cholesterol-fed mice after 10 day.
Assay [3] is filed under the species Mus musculus. Put plainly: Effect on plasma total cholesterol in high cholesterol-fed mice after 0 day.
The species entered for assay [4] is Mus musculus. Put plainly: Body weight of the high cholesterol-fed mice after 0 day.

Consider `CCCCCCCCCCCCOc1cc(O)c2c(c1)OC(c1ccc(OC)c(O)c1)CC2=O` (configuration not stated), for which the results for the Body weight in the assay listed under Mus musculus [1] and in the assay filed under Mus musculus [4] were 22.4 g and 22 g, respectively. The Total cholesterol in the assay filed under Mus musculus [2] turned out to be 189 mg/dL; in the assay listed under Mus musculus [3] it was 95 mg/dL.

As for `CCCCCCCCCCCC(=O)Oc1cc(O)c2c(c1)OC(c1ccc(OC)c(O)c1)CC2=O` (configuration not stated), the Body weight in the assay listed under Mus musculus [1] and in the assay filed under Mus musculus [4] was 22.4 g each time. In addition, the Total cholesterol in the assay listed under Mus musculus [2] was found to be 192 mg/dL; in the assay listed under Mus musculus [3], 95 mg/dL.

Consider `CCCCCCCCCCCCCCCCCC(=O)Oc1cc(O)c2c(c1)OC(c1ccc(OC)c(O)c1)CC2=O` (configuration not stated), for which the Body weight in the assay filed under Mus musculus [1] is given as 23.7 g; in the assay listed under Mus musculus [4], 22.3 g. Also, the Total cholesterol in the assay listed under Mus musculus [2] stood at 214 mg/dL; in the assay filed under Mus musculus [3], 95 mg/dL.

`CCOc1cc(O)c2c(c1)OC(c1ccc(OC)c(O)c1)CC2=O` (configuration not stated): the Body weight stood at 22.5 g in the assay listed under Mus musculus [1] and 21.9 g in the assay filed under Mus musculus [4]. Besides, the Total cholesterol in the assay filed under Mus musculus [2] was 218 mg/dL; in the assay filed under Mus musculus [3] it was 102 mg/dL.

On to `CCCCCCCC/C=C\CCCCCCCCOc1cc(O)c2c(c1)OC(c1ccc(OC)c(O)c1)CC2=O` (configuration not stated), for which the Body weight in the assay listed under Mus musculus [1] is recorded as 23.7 g; in the assay filed under Mus musculus [4], 23.4 g. The Total cholesterol in the assay listed under Mus musculus [2] is 192 mg/dL; in the assay filed under Mus musculus [3] it was 96 mg/dL.

As to `CCCCCCCCCCCCCCCCCCOc1cc(O)c2c(c1)OC(c1ccc(OC)c(O)c1)CC2=O` (configuration not stated), the Body weight in the assay listed under Mus musculus [1] is 24.4 g; in the assay listed under Mus musculus [4], 23.1 g. Also, the Total cholesterol stood at 208 mg/dL in the assay listed under Mus musculus [2] and 101 mg/dL in the assay filed under Mus musculus [3].

Take `COc1ccc(C2CC(=O)c3c(O)cc(OC(C)=O)cc3O2)cc1O` (configuration not stated): the results for the Body weight in the assay listed under Mus musculus [1] and in the assay filed under Mus musculus [4] were 23.7 g and 23.4 g, respectively. In addition, the Total cholesterol in the assay filed under Mus musculus [2] was 220 mg/dL; in the assay filed under Mus musculus [3], 96 mg/dL.

Take `CCCCCCCCCCCCCCCCOc1cc(O)c2c(c1)OC(c1ccc(OC)c(O)c1)CC2=O` (configuration not stated): the values for the Body weight in the assay filed under Mus musculus [1] and in the assay filed under Mus musculus [4] were 23 g and 22.5 g, respectively. The Total cholesterol in the assay listed under Mus musculus [2] was determined as 202 mg/dL; in the assay listed under Mus musculus [3], 93 mg/dL.

For the compound `CCCCCCCCCCCCCCCC(=O)Oc1cc(O)c2c(c1)OC(c1ccc(OC)c(O)c1)CC2=O` (configuration not stated), the Body weight in the assay listed under Mus musculus [1] is 23.4 g; in the assay filed under Mus musculus [4], 21.7 g. Further, the values for the Total cholesterol in the assay listed under Mus musculus [2] and in the assay filed under Mus musculus [3] were 209 mg/dL and 97 mg/dL, respectively.

Regarding `CCCCCCCC/C=C\CCCCCCCC(=O)Oc1cc(O)c2c(c1)OC(c1ccc(OC)c(O)c1)CC2=O` (configuration not stated), the Body weight in the assay listed under Mus musculus [1] is recorded as 23.8 g; in the assay filed under Mus musculus [4], 22.3 g.

As for `COc1ccc([C@@H]2CC(=O)c3c(O)cc(O)cc3O2)cc1O` [HESPERETIN], the Body weight in the assay listed under Mus musculus [1] worked out at 25.6 g; in the assay filed under Mus musculus [4], 25.4 g. The values for the Total cholesterol in the assay listed under Mus musculus [2] and in the assay listed under Mus musculus [3] were 216 mg/dL and 103 mg/dL, respectively.
